Assay results as given in patent publication EP4737453A1, “NOVEL SELENOPHENE DERIVATIVES” (Aigen Sciences Inc., priority 2023, dated 2025).

What was measured:
[1] = target: T1, SOS1 and KRAS G12D interaction (Homo sapiens, UniProt Q07889); format: biochemical
T1 sequence (Q07889 564-1049 limits assumed): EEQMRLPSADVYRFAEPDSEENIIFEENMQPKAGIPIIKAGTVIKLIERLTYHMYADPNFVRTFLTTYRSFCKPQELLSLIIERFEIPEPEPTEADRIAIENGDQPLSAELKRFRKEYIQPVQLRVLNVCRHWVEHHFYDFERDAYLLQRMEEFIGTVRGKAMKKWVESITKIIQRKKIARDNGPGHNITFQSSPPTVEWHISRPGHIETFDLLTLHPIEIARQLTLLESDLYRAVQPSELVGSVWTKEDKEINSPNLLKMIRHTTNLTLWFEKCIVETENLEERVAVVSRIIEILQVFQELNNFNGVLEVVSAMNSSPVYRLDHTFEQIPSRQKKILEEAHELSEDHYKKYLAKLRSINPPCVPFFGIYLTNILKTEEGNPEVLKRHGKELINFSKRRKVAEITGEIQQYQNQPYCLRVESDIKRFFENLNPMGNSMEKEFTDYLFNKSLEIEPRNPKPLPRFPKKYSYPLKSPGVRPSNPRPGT

[2] = test system: NCI-H358; experiment: Cell Growth Inhibition Assay (3D CellTiter-Glo); format: cell-based; conditions: Homo sapiens, NCI-H358, 288 h, read-out: Cell growth IC50
Method: Cell Growth Inhibition Assay
In this experimental example, the cell growth inhibitory effect of compounds according to the present invention and positive control compounds in tumor cell lines was examined.
The cell culture medium containing the compound was replaced by 100 µL every 3 days. Luminescence analysis was performed using the 3D CellTiter-Glo Luminescent Cell Viability Assay Kit (Promega, USA) (Promega catalog number G9681). […] The percent cell growth inhibition rate was calculated from the measured relative luminescence unit (RLU) as follows. Inhibition rate = 1−((RLU compound−RLU blank)/(RLU control−RLU blank)) X 100 [formula]

[3] = target: T2, SOS2 and KRAS G12C interaction (Homo sapiens, UniProt Q07890); format: biochemical
T2 sequence (Q07890 1-1332): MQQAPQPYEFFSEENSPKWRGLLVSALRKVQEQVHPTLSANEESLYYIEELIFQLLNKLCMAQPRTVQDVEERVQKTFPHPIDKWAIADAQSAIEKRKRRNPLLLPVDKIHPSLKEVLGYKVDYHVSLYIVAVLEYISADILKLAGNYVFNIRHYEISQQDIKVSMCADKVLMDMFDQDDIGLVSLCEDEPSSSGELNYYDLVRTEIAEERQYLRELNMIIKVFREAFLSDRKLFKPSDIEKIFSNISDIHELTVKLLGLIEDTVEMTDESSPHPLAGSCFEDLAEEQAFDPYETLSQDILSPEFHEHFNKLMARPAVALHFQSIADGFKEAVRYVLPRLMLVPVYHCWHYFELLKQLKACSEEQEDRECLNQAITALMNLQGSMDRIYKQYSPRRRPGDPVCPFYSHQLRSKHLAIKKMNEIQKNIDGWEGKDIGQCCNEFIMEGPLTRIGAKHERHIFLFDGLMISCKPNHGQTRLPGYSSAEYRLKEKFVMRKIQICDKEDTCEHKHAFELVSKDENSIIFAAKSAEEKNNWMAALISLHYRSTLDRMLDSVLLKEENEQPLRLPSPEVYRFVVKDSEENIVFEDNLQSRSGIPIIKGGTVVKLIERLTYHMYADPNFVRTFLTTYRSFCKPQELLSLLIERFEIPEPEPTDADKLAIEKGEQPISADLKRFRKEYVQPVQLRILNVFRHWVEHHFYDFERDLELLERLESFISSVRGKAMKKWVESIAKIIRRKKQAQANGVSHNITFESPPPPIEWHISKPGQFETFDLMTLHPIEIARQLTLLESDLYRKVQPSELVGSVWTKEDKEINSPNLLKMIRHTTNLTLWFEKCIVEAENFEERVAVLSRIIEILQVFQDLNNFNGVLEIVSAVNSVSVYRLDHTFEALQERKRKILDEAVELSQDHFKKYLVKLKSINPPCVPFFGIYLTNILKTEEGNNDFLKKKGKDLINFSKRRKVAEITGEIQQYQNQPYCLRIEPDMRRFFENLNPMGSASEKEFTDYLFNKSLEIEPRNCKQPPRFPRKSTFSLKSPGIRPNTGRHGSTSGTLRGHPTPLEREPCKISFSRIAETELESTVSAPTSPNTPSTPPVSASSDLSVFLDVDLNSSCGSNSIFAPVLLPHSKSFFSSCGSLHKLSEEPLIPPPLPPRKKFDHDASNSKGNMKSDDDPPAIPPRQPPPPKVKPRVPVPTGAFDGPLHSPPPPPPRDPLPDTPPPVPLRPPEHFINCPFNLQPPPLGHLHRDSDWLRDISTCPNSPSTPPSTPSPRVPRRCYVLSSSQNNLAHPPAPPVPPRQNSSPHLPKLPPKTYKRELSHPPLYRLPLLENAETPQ

[4] = target: T3, SOS1 and KRAS G12C interaction (Homo sapiens, UniProt Q07889); experiment: Biochemical analysis of the inhibitory activity of SOS1 and KRAS G12C interaction (time-resolved fluorescence, 665/615 nm)
T3 sequence (Q07889 564-1049 limits assumed): T1 sequence (Q07889 564-1049 limits assumed)
Method: Biochemical analysis of the inhibitory activity of SOS1 and KRAS G12C interaction
In this experimental example, the efficacy of the compound according to the present invention in inhibiting the binding of KRAS and SOS1 was biochemically measured. A KRAS G12C working solution was prepared by adding biotin-linked KRAS G12C protein and europium-linked streptavidin to assay buffer solution (20 mM HEPES, 50 mM NaCl, 200 µg/mL […] (BSA), 0.01% Pluronic F127). Then, SOS1, in which a tag consisting of six histidine residues is covalently linked, and anti-histidine tag antibody D2 were added to the assay buffer to prepare an SOS1 working solution. After these two working solutions were added to the wells of a well plate, solutions diluted according to the experimental concentration of the test compound from the 10 mM dimethyl sulfoxide (DMSO) stock solution of the Example compound or positive control compound were added to the wells in 100 nL aliquots using an Echo automatic dispenser (Beckman Coulter, USA), or a DMSO blank was added to the wells.

Work on CNCc1ccccc1-c1c[se]c([C@@H](C)Nc2nc(C)nc3cc(OC)c(OC)cc23)c1 [Example 1, (R)-6,7-dimethoxyl-2-methyl-N-(1-(4-(2-((methylamino)methyl)phenyl)selenophen-2-yl)ethyl)quinazolin-4-amine] yielded an IC50 [1] of 8.4 nM, an IC50 [2] of 20.7 nM and an IC50 [3] of 24600 nM. The IC50 [4] was 18.6 nM.
